Assay results reported in PubChem BioAssay AID2060484 (Molecular Pharmacology Branch, DTP, NCI, 2025).

System: SUM149PT spheroids with HUVEC/MSC, viability
Assay: Anticancer human tumor SUM149PT cell line growth inhibition [GQUAD];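 further: spheroids exposed to drugs for seven days before readout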;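 on viability, T/C: percent viability relative to DMSO vehicle control taken as 100%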
Conditions: for IC50: curve of first compound; for viability, T/C: stronger effect = lower value
Summary of the method: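 Viability of tumor cells grown as complex spheroids with endothelial and stromal cells, exposed to drug combinations. Top concentration at or near clinical Cmax (else 10 microM), diluted in half-log increments.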

[1] = second compound 0.0316 µM, first compound 0.0316 µM
[2] = second compound 0.0316 µM, first compound 0.1 µM
[3] = second compound 0.0316 µM, first compound 0.316 µM
[4] = second compound 0.0316 µM, first compound 1 µM
[5] = second compound 0.0316 µM, first compound 3.16 µM
[6] = second compound 0.0316 µM, first compound 10 µM
[7] = second compound 0.1 µM, first compound 0.0316 µM
[8] = second compound 0.1 µM, first compound 0.1 µM
[9] = second compound 0.1 µM, first compound 0.316 µM
[10] = second compound 0.1 µM, first compound 1 µM
[11] = second compound 0.1 µM, first compound 3.16 µM
[12] = second compound 0.1 µM, first compound 10 µM
[13] = second compound 0.316 µM, first compound 0.0316 µM
[14] = second compound 0.316 µM, first compound 0.1 µM
[15] = second compound 0.316 µM, first compound 0.316 µM
[16] = second compound 0.316 µM, first compound 1 µM
[17] = second compound 0.316 µM, first compound 3.16 µM
[18] = second compound 0.316 µM, first compound 10 µM
[19] = second compound 1 µM, first compound 0.0316 µM
[20] = second compound 1 µM, first compound 0.1 µM
[21] = second compound 1 µM, first compound 0.316 µM
[22] = second compound 1 µM, first compound 1 µM
[23] = second compound 1 µM, first compound 3.16 µM
[24] = second compound 1 µM, first compound 10 µM
[25] = second compound 3.16 µM, first compound 0.0316 µM
[26] = second compound 3.16 µM, first compound 0.1 µM
[27] = second compound 3.16 µM, first compound 0.316 µM
[28] = second compound 3.16 µM, first compound 1 µM
[29] = second compound 3.16 µM, first compound 3.16 µM
[30] = second compound 3.16 µM, first compound 10 µM
[31] = second compound 10 µM, first compound 0.0316 µM
[32] = second compound 10 µM, first compound 0.1 µM
[33] = second compound 10 µM, first compound 0.316 µM
[34] = second compound 10 µM, first compound 1 µM
[35] = second compound 10 µM, first compound 3.16 µM
[36] = second compound 10 µM, first compound 10 µM

C=CCn1c(=O)c2cnc(Nc3ccc(N4CCN(C)CC4)cc3)nc2n1-c1cccc(C(C)(C)O)n1 + Cc1cnc(CNC(=O)c2c(=O)c3ccc(N4CCCN(C)CC4)nc3n3c2sc2ccccc23)cn1
IC50 (second compound 0.0316 µM): 68.6 nM
IC50 (second compound 0.1 µM): < 31.6 nM
IC50 (second compound 0.316 µM): < 31.6 nM
IC50 (second compound 1 µM): < 31.6 nM
IC50 (second compound 3.16 µM): < 31.6 nM
IC50 (second compound 10 µM): < 31.6 nM
viability, T/C [1]: 74.3%
viability, T/C [2]: 37%
viability, T/C [3]: 22.9%
viability, T/C [4]: 14.2%
viability, T/C [5]: 9.59%
viability, T/C [6]: 8.42%
viability, T/C [7]: 42.7%
viability, T/C [8]: 34.8%
viability, T/C [9]: 18.6%
viability, T/C [10]: 16.3%
viability, T/C [11]: 9.24%
viability, T/C [12]: 8.01%
viability, T/C [13]: 45.9%
viability, T/C [14]: 32.1%
viability, T/C [15]: 21.3%
viability, T/C [16]: 16.5%
viability, T/C [17]: 11.3%
viability, T/C [18]: 8.57%
viability, T/C [19]: 34.5%
viability, T/C [20]: 25.6%
viability, T/C [21]: 20.6%
viability, T/C [22]: 17.7%
viability, T/C [23]: 13.7%
viability, T/C [24]: 11.5%
viability, T/C [25]: 32.9%
viability, T/C [26]: 26.3%
viability, T/C [27]: 20.3%
viability, T/C [28]: 16.7%
viability, T/C [29]: 12.7%
viability, T/C [30]: 10.6%
viability, T/C [31]: 0.17%
viability, T/C [32]: 1.7%
viability, T/C [33]: 0.84%
viability, T/C [34]: 1.14%
viability, T/C [35]: 0.21%
viability, T/C [36]: 2.8%

CCCS(=O)(=O)Nc1ccc(F)c(C(=O)c2c[nH]c3ncc(-c4ccc(Cl)cc4)cc23)c1F + Cc1cnc(CNC(=O)c2c(=O)c3ccc(N4CCCN(C)CC4)nc3n3c2sc2ccccc23)cn1
IC50 (second compound 0.0316 µM): 5870 nM
IC50 (second compound 0.1 µM): 3100 nM
IC50 (second compound 0.316 µM): 1450 nM
IC50 (second compound 1 µM): < 31.6 nM
IC50 (second compound 3.16 µM): < 31.6 nM
IC50 (second compound 10 µM): < 31.6 nM
viability, T/C [1]: 80%
viability, T/C [2]: 76.5%
viability, T/C [3]: 96.1%
viability, T/C [4]: 88.6%
viability, T/C [5]: 67.5%
viability, T/C [6]: 34.9%
viability, T/C [7]: 67.8%
viability, T/C [8]: 68.3%
viability, T/C [9]: 79.3%
viability, T/C [10]: 66.5%
viability, T/C [11]: 50%
viability, T/C [12]: 33.2%
viability, T/C [13]: 51.9%
viability, T/C [14]: 57.5%
viability, T/C [15]: 56.5%
viability, T/C [16]: 52.9%
viability, T/C [17]: 43.2%
viability, T/C [18]: 31%
viability, T/C [19]: 51.5%
viability, T/C [20]: 46%
viability, T/C [21]: 44.6%
viability, T/C [22]: 46.6%
viability, T/C [23]: 37.7%
viability, T/C [24]: 25.4%
viability, T/C [25]: 37.5%
viability, T/C [26]: 38%
viability, T/C [27]: 43.1%
viability, T/C [28]: 38%
viability, T/C [29]: 37%
viability, T/C [30]: 23.4%
viability, T/C [31]: 0.2%
viability, T/C [32]: 11.8%
viability, T/C [33]: 0.67%
viability, T/C [34]: 11.7%
viability, T/C [35]: 2.28%
viability, T/C [36]: 2.88%

COc1ncnc(C2CC2)c1-c1ncc2cnn(Cc3ccc(-c4nc(C(F)(F)F)cn4C(C)C)cc3)c2n1 + Cc1cnc(CNC(=O)c2c(=O)c3ccc(N4CCCN(C)CC4)nc3n3c2sc2ccccc23)cn1
IC50 (second compound 0.0316 µM): > 10000 nM
IC50 (second compound 0.1 µM): 31.6 nM
IC50 (second compound 0.316 µM): < 31.6 nM
IC50 (second compound 1 µM): < 31.6 nM
IC50 (second compound 3.16 µM): < 31.6 nM
IC50 (second compound 10 µM): < 31.6 nM
viability, T/C [1]: 87.3%
viability, T/C [2]: 63.3%
viability, T/C [3]: 62.1%
viability, T/C [4]: 61.9%
viability, T/C [5]: 70.5%
viability, T/C [6]: 81.5%
viability, T/C [7]: 55.3%
viability, T/C [8]: 57.5%
viability, T/C [9]: 45.2%
viability, T/C [10]: 48.1%
viability, T/C [11]: 57.1%
viability, T/C [12]: 62.7%
viability, T/C [13]: 45.1%
viability, T/C [14]: 50.3%
viability, T/C [15]: 45.6%
viability, T/C [16]: 43.1%
viability, T/C [17]: 48.1%
viability, T/C [18]: 56.1%
viability, T/C [19]: 37.4%
viability, T/C [20]: 38.4%
viability, T/C [21]: 47.1%
viability, T/C [22]: 41.4%
viability, T/C [23]: 40%
viability, T/C [24]: 49.4%
viability, T/C [25]: 35%
viability, T/C [26]: 32.9%
viability, T/C [27]: 34.1%
viability, T/C [28]: 33.5%
viability, T/C [29]: 40%
viability, T/C [30]: 39.1%
viability, T/C [31]: 0.16%
viability, T/C [32]: 11.9%
viability, T/C [33]: 27.6%
viability, T/C [34]: 11%
viability, T/C [35]: 3.43%
viability, T/C [36]: 1.12%

Cc1[nH]c2ccccc2c1CCNCc1ccc(/C=C/C(=O)NO)cc1 + Cc1cnc(CNC(=O)c2c(=O)c3ccc(N4CCCN(C)CC4)nc3n3c2sc2ccccc23)cn1
IC50 (second compound 0.0316 µM): 131 nM
IC50 (second compound 0.1 µM): 100 nM
IC50 (second compound 0.316 µM): 56 nM
IC50 (second compound 1 µM): < 0.999 nM
IC50 (second compound 3.16 µM): < 0.999 nM
IC50 (second compound 10 µM): < 0.999 nM
viability, T/C (second compound 0.0316 µM, first compound 0.000999 µM): 106%
viability, T/C (second compound 0.0316 µM, first compound 0.00316 µM): 86.2%
viability, T/C (second compound 0.0316 µM, first compound 0.00999 µM): 90%
viability, T/C [1]: 89.5%
viability, T/C (second compound 0.0316 µM, first compound 0.0999 µM): 56%
viability, T/C [3]: 29.8%
viability, T/C (second compound 0.1 µM, first compound 0.000999 µM): 66.2%
viability, T/C (second compound 0.1 µM, first compound 0.00316 µM): 62.1%
viability, T/C (second compound 0.1 µM, first compound 0.00999 µM): 67.7%
viability, T/C [7]: 65.2%
viability, T/C (second compound 0.1 µM, first compound 0.0999 µM): 50.1%
viability, T/C [9]: 26.9%
viability, T/C (second compound 0.316 µM, first compound 0.000999 µM): 54.2%
viability, T/C (second compound 0.316 µM, first compound 0.00316 µM): 55.2%
viability, T/C (second compound 0.316 µM, first compound 0.00999 µM): 55.3%
viability, T/C [13]: 54.9%
viability, T/C (second compound 0.316 µM, first compound 0.0999 µM): 45.7%
viability, T/C [15]: 25%
viability, T/C (second compound 1 µM, first compound 0.000999 µM): 51.1%
viability, T/C (second compound 1 µM, first compound 0.00316 µM): 43.2%
viability, T/C (second compound 1 µM, first compound 0.00999 µM): 48.5%
viability, T/C [19]: 47.7%
viability, T/C (second compound 1 µM, first compound 0.0999 µM): 46.2%
viability, T/C [21]: 20.2%
viability, T/C (second compound 3.16 µM, first compound 0.000999 µM): 39.1%
viability, T/C (second compound 3.16 µM, first compound 0.00316 µM): 40.3%
viability, T/C (second compound 3.16 µM, first compound 0.00999 µM): 39.1%
viability, T/C [25]: 42.6%
viability, T/C (second compound 3.16 µM, first compound 0.0999 µM): 37.9%
viability, T/C [27]: 17.8%
viability, T/C (second compound 10 µM, first compound 0.000999 µM): 0.24%
viability, T/C (second compound 10 µM, first compound 0.00316 µM): 1.67%
viability, T/C (second compound 10 µM, first compound 0.00999 µM): 9.84%
viability, T/C [31]: 10.1%
viability, T/C (second compound 10 µM, first compound 0.0999 µM): 2.55%
viability, T/C [33]: 2%
